In patent publication US11154551B2, “HDAC1,2 inhibitors and methods of using the same” (UNIVERSITY OF UTAH RESEARCH FOUNDATION, priority 2014, dated 2021):

How the values were obtained:
[1] = system: Karpas-422 cells; assay: ChIP of H3K27ac and H3K27me3 at BMF and TP63 promoters; format: cell-based, human; conditions: 2 μM, vs DMSO
Source text: RNA samples obtained from three independent treatments were subjected to RiboZero stranded sequencing using the Illumina Hiseq2000 sequencer. RNA-seq data from ACY-957-treated samples was compared to the publically available RNA seq data set from Karpas-422 cells following GSK126 treatment of Karpas-422 cells. Venn diagrams were made using the R package VennDiagram. Genes with adjusted p-value<0.05 and absolute log 2 fold change>0.585 were used in this analysis. (B): Pathway analysis of the 71 commonly up regulated genes was performed. Screen shots of the pathways that were misregulated in both ACY-957-treated Karpas-422 cells and in Karpas-422 cells following GSK-126 treatment. […] (C): Base read depth, scaled per million mapped reads, for BMF and Tp63 genes in DMSO- or ACY-957-treated Karpas-422 cells. […] Fold-increase as determined by real-time PCR analysis in H3K27ac relative to total H3 occupancy was calculated for both ACY-957-treated and DMSO-treated samples and the relative fold-enrichment of H3K27ac and […] in ACY-957-treated samples was calculated following normalization to DMSO-treated samples. The data represented an average fold-change calculated from three independent experiments+/−standard error. *p=0.003 and **p=0.004 (E): ChIP analysis of HDAC1 and HDAC2 at the promoters of BMF and Tp63 genes was performed in Karpas-422 cells. […]

[2] = system: Karpas-422 cells; assay: 53BP1 and γH2AX foci formation after doxorubicin; format: cell-based, human; conditions: 24 h pretreatment
Method: After 4 h or 8 h of doxorubicin treatment, cells were fixed and immunofluorescence staining was performed with anti-γH2AX and anti-53BP1 antibodies. Cells shown were representative images based on the quantitation. Merge was the overlay of γH2AX and 53BP1 pictures. (B) and (C): Graphs depicted the percentage of cells with 53BP1 foci present at γH2AX containing break sites and the percentages of cells with γH2AX foci.
Immunofluorescence. Cells were fixed in either 10% formalin or methanol-acetone (1:1) for 10 min at −20*C. The cells were then permeabilized with 0.5% Triton-X-100 in PBS for 5 min at room temperature (RT), blocked in 10% normal goat serum (Sigma) for 30 min and stained with primary antibody for 1 h at RT. Cells were incubated with secondary antibody (anti-mouse or anti-rabbit IgG, Alexa Fluor 488/546) at a 1:600 dilution for 45 min at RT, and counterstained with Hoechst 33342 (Sigma) at 1:1000 dilution to visualize the nuclei. Images were captured using Zeiss Axioskop mot plus microscope with a 40× lens and analyzed using the AxioVision software.
To test this possibility, we treated DLBCL cells with DMSO or ACY957 for 24 h prior to a low dose of doxorubicin (50 nM) treatment. We examined γH2AX and 53BP1 foci formation at 4 h or 8 h post-doxorubicin treatment using immunofluorescence.
The percentage of cells containing 0, 1-5, 6-10 and greater than 10 γH2AX and 53BP1 foci were determined in at least 100 cells from three independent experiments.

`Nc1ccc(-c2cccs2)cc1NC(=O)c1ccc2nc(N3CCNCC3)ccc2c1` [ACY-957, N-(2-amino-5-(thiophen-2-yl)phenyl)-2-(piperazin-1-yl)quinoline-6-carboxamide] was tested, and the “H3K27ac at promoter regions of TP63 and BMF” value [1] was “increase in H3K27ac levels at the promoter regions of both TP63 and BMF genes”, the “H3K27me3 at TP63 and BMF promoters” value [1] was “concomitant decrease in H3K27me3 was not observed” and the “53BP1 foci co-localizing with γH2AX foci” value ([2]; 4 h post-doxorubicin (50 nM)) was “decrease in the number of 53BP1 foci”. For the same compound, the “percentage of cells with 53BP1 foci” value ([2]; 8 h doxorubicin) was “increased to the level that was observed in the control DMSO-treated cells” and the “percentage of cells with γH2AX foci” value ([2]; 8 h doxorubicin) was “even higher percentage of cells with 6-10 and greater than 10 γH2AX foci”.
